# In US20150175651A1, “NEUROACTIVE STEROIDS, COMPOSITIONS, AND USES THEREOF” (SAGE THERAPEUTICS, INC., priority 2012, published 2015):
# Molecular target: GABA receptor complex (GRC), [35S]-TBPS binding in rat brain cortical membranes
# Assay: Steroid inhibition of [35S]-TBPS binding (radioligand displacement)
# Conditions: 2 nM [35S]-TBPS, in the presence of 5 μM GABA, read-out: 35S-TBPS Radioligand Displacement (Control IC50)
# Protocol: TBPS binding assays using rat brain cortical membranes in the presence of 5 μM GABA has been described (Gee et al, J. Pharmacol. Exp. Ther. 1987, 241, 346-353; Hawkinson et al, Mol. Pharmacol. 1994, 46, 977-985).
# Briefly, cortices are rapidly removed following decapitation of carbon dioxide-anesthetized Sprague-Dawley rats (200-250 g). The cortices are homogenized in 10 volumes of ice-cold 0.32 M sucrose using a glass/teflon homogenizer and centrifuged at 1500×g for 10 min at 4° C. The resultant supernatants are centrifuged at 10,000×g for 20 min at 4° C. to obtain the P2 pellets. The P2 pellets are resuspended in 200 mM NaCl/50 mM Na—K phosphate pH 7.4 buffer and centrifuged at 10,000×g for 10 min at 4 OC. This ishing procedure is repeated twice and the pellets are resuspended in 10 volumes of buffer. Aliquots (100 μL) of the membrane suspensions are incubated with 2 nM [^35S]-TBPS and 5 μL, aliquots of test drug dissolved in dimethyl sulfoxide (DMSO) (final 0.5%) in the presence of 5 μM GABA. The incubation is brought to a final volume of 1.0 mL with buffer. Nonspecific binding is determined in the presence of 2 μM unlabeled TBPS and ranged from 15 to 25%. Following a 90 min incubation at room temp, the assays are terminated by filtration through glass fiber filters (Schleicher and Schuell No. 32) using a cell harvester (Brandel) and rinsed three times with ice-cold buffer. Filter bound radioactivity is measured by liquid scintillation spectrometry. Non-linear curve fitting of the overall data for each drug averaged for each concentration is done using Prism (GraphPad). […] The concentration of test compound producing 50% inhibition (IC50) of specific binding and the maximal extent of inhibition (Imax) are determined for the individual experiments with the same model used for the overall data and then the means+SEM.s of the individual experiments are calculated.
# Various compounds are or can be screened to determine their potential as modulators of [^35S]-TBPS binding in vitro. These assays are or can be performed in accordance with the above discussed procedures.
row,SMILES,IC50 [nM]
1,CC(=O)O[C@H]1C[C@@]2(C)[C@@H](CC[C@@H]3[C@@H]2CC[C@]2(C)[C@@H](C(=O)CO)CC[C@@H]32)C[C@@H]1O [Compound 6],100 to 500
2,"CC(=O)O[C@H]1C[C@]2(C)[C@@H](C(=O)CO)CC[C@H]2[C@@H]2CC[C@H]3C[C@H](O)CC[C@]3(C)[C@H]21 [Compound 7, (3R,5S,8S,9S,10S,11S,13S,14S,17S)-3-hydroxy-17-(2-hydroxyacetyl)-10,13-dimethyl-hexadecahydro-1H-cyclopenta[a]phenanthren-11-yl acetate]",100 to 500
3,"CC(=O)O[C@H]1C[C@]2(C)/C(=C\C#N)CC[C@H]2[C@@H]2CC[C@H]3C[C@H](O)CC[C@]3(C)[C@H]21 [Compound 4, (3R,5S,8S,9S,10S,11S,13S,14S,Z)-17-(cyanomethylene)-3-hydroxy-10,13-dimethyl-hexadecahydro-1H-cyclopenta[a]phenanthren-11-yl acetate]",100 to 500
4,"CC(=O)O[C@H]1C[C@@H]2[C@H](CC[C@]3(C)/C(=C\C#N)CC[C@@H]23)[C@@]2(C)CC[C@@H](O)C[C@H]12 [Compound 3, (3R,5S,6S,8R,9S,10R,13S,14S,Z)-17-(cyanomethylene)-3-hydroxy-10,13-dimethyl-hexadecahydro-1H-cyclopenta[a]phenanthren-6-yl acetate]",100 to 500
5,"CC(=O)O[C@H]1C[C@@H]2[C@H](CC[C@]3(C)[C@@H](C(=O)CO)CC[C@@H]23)[C@@]2(C)CC[C@@H](O)C[C@H]12 [Compound 9, (3R,5S,6S,8R,9S,10R,13S,14S,17S)-3-hydroxy-17-(2-hydroxyacetyl)-10,13-dimethyl-hexadecahydro-1H-cyclopenta[a]phenanthren-6-yl acetate]",100 to 500
6,"C[C@]12C[C@H](OC(=O)c3ccccc3)[C@@H](O)C[C@@H]1CC[C@@H]1[C@@H]2CC[C@]2(C)[C@@H](C(=O)CO)CC[C@@H]12 [Compound 2, (2S,3S,5S,8R,9S,10S,13S,14S,17S)-3-hydroxy-17-(2-hydroxyacetyl)-10,13-dimethyl-hexadecahydro-1H-cyclopenta[a]phenanthren-2-yl benzoate]",100 to 500
7,"CC(=O)O[C@H]1C[C@@H]2[C@H](CC[C@]3(C)[C@@H](C(C)=O)CC[C@@H]23)[C@@]2(C)CC[C@@H](O)C[C@H]12 [Compound 8, (3R,5S,6S,8R,9S,10R,13S,14S,17S)-17-acetyl-3-hydroxy-10,13-dimethyl-hexadecahydro-1H-cyclopenta[a]phenanthren-6-yl acetate]",100 to 500
8,CC(=O)OC1CC2(C)C(=CC#N)CCC2C2CCC3CC(O)CCC3C12 (centres unmarked) [Compound 11],100 to 500
9,CO[C@H]1CC[C@H]2[C@@H]3CC[C@H]4C[C@H](O)CC[C@]4(COC(C)=O)[C@H]3CC[C@]12C [Compound 13],100 to 500
10,"CC(=O)O[C@H]1C[C@@]2(C)[C@@H](CC[C@@H]3[C@@H]2CC[C@]2(C)/C(=C\C#N)CC[C@@H]32)C[C@@H]1O [Compound 1, (2S,3S,5S,8R,9S,10S,13S,14S,Z)-17-(cyanomethylene)-3-hydroxy-10,13-dimethyl-hexadecahydro-1H-cyclopenta[a]phenanthren-2-yl acetate]",100 to 500
11,"CC(=O)OC[C@]12CC[C@@H](O)C[C@@H]1CC[C@@H]1[C@@H]2CC[C@]2(C)/C(=C\C#N)CC[C@@H]12 [Compound 5, ((3R,5S,8S,9S,10R,13S,14S,Z)-17-(cyanomethylene)-3-hydroxy-13-methyl-hexadecahydro-1H-cyclopenta[a]phenanthren-10-yl)methyl acetate]",100 to 500
